Results published in patent US7763640B2, “Substituted oxyguanidines” (Bayer CorpScience AG, priority 2004, dated 2010).

Experiments:
[1] = system: green peach aphid (Myzus persicae); assay: Myzus test, spray treatment, Example F; type: in vivo; conditions: 500 g a.i./ha, China cabbage leaf sections
Description: (§1) To prepare a suitable active compound preparation 1 part by weight of the active compound is mixed with the given amount of solvent and the given amount of emulsifier and the concentrate is diluted to the desired concentration with water containing emulsifier.
China cabbage leaf sections (brassica pekinensis) that are infected with all stages of the green peach aphid (Myzus persicae) are sprayed with an active compound preparation at the desired concentration.
(§2) After the desired time the activity in % is determined. Here 100% means that all aphids were killed; 0% means that no aphids were killed.

[2] = system: fall army worm (Spodoptera frugiperda); assay: Spodoptera frugiperda test, Example G; type: in vivo; conditions: 500 g a.i./ha, cabbage leaves, immersion, caterpillars
Description: as §1
Cabbage leaves (Brassica oleracea) are treated by immersion in the active compound preparation at the desired concentration and infected with caterpillars of the fall army worm (Spodoptera frugiperda) while the leaves are still wet.
After the desired time the death rate in % is determined. Here 100% means that all caterpillars were killed; 0% means that no caterpillars were killed.

[3] = system: cotton aphid (Aphis gossypii); assay: Aphis gossypii test, soil application, Example D; type: in vivo; conditions: cotton plant
Description: (§3) To prepare a suitable active compound preparation 1 part by weight of the active compound is mixed with the given amount of solvent and the given amount of emulsifier and the concentrate is diluted to the desired concentration with water.
The active compound preparation is mixed with soil. The concentration given relates to the amount of active compound per unit volume soil (mg/l=ppm). The treated soil is filled into pots and planted with one cotton plant (Gossypium hirsutum). After a week infection is carried out with the cotton aphid (Aphis gossypii).
(§4) After the desired time the death rate in % is determined. Here 100% means that all aphids were killed; 0% means that no aphids were killed.

[4] = system: green peach aphid (Myzus persicae); assay: Myzus persicae test, soil application, Example C; type: in vivo; conditions: pepper plant
Description: as §3
The active compound preparation is mixed with soil. The concentration given relates to the amount of active compound per unit volume soil (mg/l=ppm). The treated soil is filled into pots and planted with one pepper plant (Capsicum annuum). After one week infection is carried out with the green peach aphid (Myzus persicae).
as §2

[5] = system: green peach aphid (Myzus persicae); assay: Myzus persicae test (cabbage leaves, immersion), Example A; type: in vivo; conditions: for Death rate in % after 6d: 1000 ppm, cabbage leaves (Brassica oleracea)
Description: as §3
Cabbage leaves (Brassica oleracea) that are highly infested with the green peach aphid (Myzus persicae) are treated by immersion in the active compound preparation at the desired concentration.
as §4

[6] = system: green peach aphid (Myzus persicae); assay: Myzus test, spray treatment, Example B; type: in vivo; conditions: Chinese cabbage leaves
Description: To prepare a suitable active compound preparation 1 part by weight of the active compound is mixed with the given amount of solvent and the given amount emulsifier and the concentrate is diluted to the desired concentration with water.
Chinese cabbage leaves (Brassica pekinensis) infested with all stages of the green peach aphid (Myzus persicae) were sprayed with an active compound preparation at the desired concentration.
as §4

[7] = system: white fly (Bemisia tabaci, resistant strain); assay: Bemisia tabaci test, resistant strain, Example E; type: in vivo; conditions: cotton leaf sections, immersion
Description: as §1
Leaf sections of cotton plants (Gossypium hirsutum) are treated by immersion in the active compound preparation at the desired concentration and after drying of the coating are infected with adults of the white fly (Bemisia tabaci, resistant strain).
After the desired time the death rate in % is determined. Here 100% means that all animals were killed; 0% means that no animals were killed.

physchem = conditions: pH 2
[8] = system: mixed thrips population (Frankliniella occidentalis); assay: Frankliniella occidentalis test, Example H; type: in vivo; conditions: 100 ppm, cotton plants, spraying
Description: as §1
Cotton plants (Gossypium hirsutum) are treated by spraying with the active compound preparation at the desired concentration and infected with a mixed thrips population (Frankliniella occidentalis).
After the desired time the death rate in % is determined. Here 100% means that all thrips were killed; 0% means that no thrips were killed.

## CON/C(=N\C#N)NCc1ccc(Cl)nc1
[1]
  Activity in % after 5d: 100%

## CON/C(=N\[N+](=O)[O-])N(C)Cc1ccc(Cl)nc1
[1]
  Activity in % after 5d: 100%

## CON/C(=N\C#N)NCc1cnc(Cl)s1
[2]
  Death rate in % after 7d: 100%

## CON/C(=N\[N+](=O)[O-])NCc1ccc(Cl)nc1 [Example I-1, N-methoxy-N′-(2-chloropyrid-5-ylmethyl)nitroguanidine]
[3]; 8 ppm (mg/l soil)
  Death rate in % after 7d: 100%
[4]; 8 ppm (mg/l soil)
  Death rate in % after 7d: 100%
[5]
  Death rate in % after 6d: 98%

## CCON/C(=N/[N+](=O)[O-])NCc1ccc(Cl)nc1 [Example I-2]
[6]; 500 ppm, after 4 d
  Death rate in % after 4d: 100%
[6]
  activity in Myzus test, spray treatment: good activity

## CON/C(=N/[N+](=O)[O-])NCc1cnc(Cl)s1 [Example I-5]
[3]; 0.25 ppm (mg/l soil)
  Death rate in % after 7d: 80%
[3]
  activity in Aphis gossypii test, soil application: good activity
[7]; 1000 ppm, after 3 d, adults
  Death rate in % after 3d: 93%
[7]
  activity in Bemisia tabaci test, resistant strain: good activity
physchem
  logP: 1.13
[4]; 0.25 ppm (mg/l soil)
  Death rate in % after 7d: 85%
[4]
  activity in Myzus persicae test, soil application: good activity
[5]
  Death rate in % after 6d: 98%
[5]; cabbage leaves
  activity in Myzus persicae test: good activity

## CON/C(=N/[N+](=O)[O-])NCc1cnc(Cl)s1 [drawing 35]
[8]
  Death rate in % after 14d: 90%
